Laboratory results published in ChEMBL document CHEMBL1201862, “PubChem BioAssay data set” (2004).
Active and inactive are the calls of the source.

Columns and labels:
ORF 73 = target: T1, ORF 73 (Human herpesvirus 8, UniProt O40947); assay: KSHV LANA DNA-binding disruption – biochemical, fluorescence polarization, cherry-picked samples, dose response (AID 504725); parameters: species or system Human gammaherpesvirus 8;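 further: fluorescence polarization of a labeled DNA duplex reporting LANA DNA binding; potency is for inhibitors that block LANA binding to the DNA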
T1 sequence (O40947 whole entry): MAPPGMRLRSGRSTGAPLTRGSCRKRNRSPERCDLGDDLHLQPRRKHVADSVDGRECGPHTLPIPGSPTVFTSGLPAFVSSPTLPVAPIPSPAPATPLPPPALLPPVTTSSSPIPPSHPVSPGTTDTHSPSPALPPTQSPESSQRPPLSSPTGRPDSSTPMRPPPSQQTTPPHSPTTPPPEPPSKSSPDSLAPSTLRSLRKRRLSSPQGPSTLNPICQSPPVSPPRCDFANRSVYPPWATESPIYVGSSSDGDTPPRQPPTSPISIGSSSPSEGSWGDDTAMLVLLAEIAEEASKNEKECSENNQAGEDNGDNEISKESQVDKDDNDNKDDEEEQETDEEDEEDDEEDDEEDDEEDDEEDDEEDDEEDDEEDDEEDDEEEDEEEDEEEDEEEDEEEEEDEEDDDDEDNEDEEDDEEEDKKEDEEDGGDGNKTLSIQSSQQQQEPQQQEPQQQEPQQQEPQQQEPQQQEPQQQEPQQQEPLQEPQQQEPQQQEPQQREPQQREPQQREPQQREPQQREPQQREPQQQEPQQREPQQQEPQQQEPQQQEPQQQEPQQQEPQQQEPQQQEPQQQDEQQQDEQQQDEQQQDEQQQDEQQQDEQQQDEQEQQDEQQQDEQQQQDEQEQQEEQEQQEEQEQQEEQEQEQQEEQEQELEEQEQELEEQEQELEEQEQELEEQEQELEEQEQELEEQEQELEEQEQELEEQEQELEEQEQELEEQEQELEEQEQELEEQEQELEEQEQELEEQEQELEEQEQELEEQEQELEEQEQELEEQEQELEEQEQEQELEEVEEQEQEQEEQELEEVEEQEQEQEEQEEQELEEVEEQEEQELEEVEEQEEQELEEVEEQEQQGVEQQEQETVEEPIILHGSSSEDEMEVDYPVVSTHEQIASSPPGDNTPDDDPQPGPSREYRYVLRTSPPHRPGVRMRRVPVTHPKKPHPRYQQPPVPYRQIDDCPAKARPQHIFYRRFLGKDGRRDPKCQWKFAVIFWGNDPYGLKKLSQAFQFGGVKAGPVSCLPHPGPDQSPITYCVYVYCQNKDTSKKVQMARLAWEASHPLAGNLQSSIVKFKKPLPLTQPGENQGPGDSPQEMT

[1] = target: T2, Zinc finger protein mex-5 (Caenorhabditis elegans, UniProt Q9XUB2); assay: potency of MEX-5 RNA-binding blockers – biochemical, C. elegans, fluorescence polarization, dose response (AID 1960)
T2 sequence (Q9XUB2 whole entry): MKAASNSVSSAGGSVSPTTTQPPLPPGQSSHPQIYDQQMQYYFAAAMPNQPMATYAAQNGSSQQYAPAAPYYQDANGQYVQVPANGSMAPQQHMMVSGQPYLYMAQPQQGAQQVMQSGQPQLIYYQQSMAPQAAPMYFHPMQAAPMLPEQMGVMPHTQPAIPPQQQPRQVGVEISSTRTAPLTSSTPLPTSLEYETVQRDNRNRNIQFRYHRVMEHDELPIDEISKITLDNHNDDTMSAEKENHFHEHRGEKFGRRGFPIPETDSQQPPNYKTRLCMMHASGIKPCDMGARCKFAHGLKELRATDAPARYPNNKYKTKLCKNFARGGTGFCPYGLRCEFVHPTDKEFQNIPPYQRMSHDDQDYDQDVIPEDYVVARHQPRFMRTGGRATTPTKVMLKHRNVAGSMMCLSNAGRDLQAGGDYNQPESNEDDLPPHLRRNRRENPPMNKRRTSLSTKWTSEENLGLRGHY

[2] = target: Bifunctional protein GlmU (Mycobacterium tuberculosis, UniProt P9WMN3); assay: Inhibitors of Mycobacterial Glucosamine-1-phosphate acetyl transferase (GlmU). Secondary screen.; parameters: species or system Mycobacterium tuberculosis H37Rv
Chain of Bifunctional protein GlmU (P9WMN3 whole entry): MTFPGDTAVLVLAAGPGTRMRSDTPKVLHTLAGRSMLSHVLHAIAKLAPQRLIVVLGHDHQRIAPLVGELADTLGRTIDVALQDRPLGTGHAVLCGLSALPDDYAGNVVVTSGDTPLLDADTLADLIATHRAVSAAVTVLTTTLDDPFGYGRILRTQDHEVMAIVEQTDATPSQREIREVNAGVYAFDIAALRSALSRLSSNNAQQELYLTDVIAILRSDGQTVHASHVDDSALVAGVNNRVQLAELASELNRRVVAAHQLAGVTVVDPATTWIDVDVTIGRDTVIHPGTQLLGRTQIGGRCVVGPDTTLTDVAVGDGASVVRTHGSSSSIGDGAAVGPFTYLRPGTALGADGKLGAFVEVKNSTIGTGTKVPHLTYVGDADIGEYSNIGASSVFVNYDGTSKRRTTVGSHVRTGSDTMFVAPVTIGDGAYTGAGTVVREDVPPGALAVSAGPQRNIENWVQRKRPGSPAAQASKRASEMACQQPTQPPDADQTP

[3] = target: Likely tRNA 2'-phosphotransferase (Candida albicans (strain SC5314 / ATCC MYA-2876) (Yeast), UniProt Q5A7N4); assay: inhibition of Candida TPT1 enzyme activity – biochemical, fluorescence polarization, dose response (AID 2160)
Chain of Likely tRNA 2'-phosphotransferase (Q5A7N4 whole entry): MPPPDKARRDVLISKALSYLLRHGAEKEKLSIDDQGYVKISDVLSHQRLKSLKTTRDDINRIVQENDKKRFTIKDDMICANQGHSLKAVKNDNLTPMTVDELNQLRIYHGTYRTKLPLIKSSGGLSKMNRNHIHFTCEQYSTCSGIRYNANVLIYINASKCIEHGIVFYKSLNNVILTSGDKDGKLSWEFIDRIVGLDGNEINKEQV

Troponin, cardiac muscle = Troponin, cardiac muscle (Homo sapiens, UniProt P19429+P45379+P63316); assay: compounds desensitizing RTF to calcium – biochemical, fluorescence, cardiac regulated thin filaments, triplicate IC50, dose response (AID 504742); assay type: protein-complex assay
[4] = target: T3, RNA-binding protein pos-1 (Caenorhabditis elegans, UniProt G5EF15); assay: disruptors of C. elegans POS-1 RNA interaction – biochemical, fluorescence polarization, dose response (AID 1964);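 further: purified POS-1 fused to maltose binding protein made in E. coli; potency of compounds blocking POS-1 binding to fluorescent RNA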
T3 sequence (G5EF15 whole entry): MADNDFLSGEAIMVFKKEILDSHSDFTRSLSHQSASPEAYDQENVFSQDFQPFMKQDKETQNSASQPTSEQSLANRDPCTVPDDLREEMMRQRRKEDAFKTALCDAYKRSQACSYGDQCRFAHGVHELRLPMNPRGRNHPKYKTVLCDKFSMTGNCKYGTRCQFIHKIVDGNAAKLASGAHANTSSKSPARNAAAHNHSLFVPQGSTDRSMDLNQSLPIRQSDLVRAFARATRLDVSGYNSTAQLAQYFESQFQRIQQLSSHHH

cells = assay type: functional, cell-based
Phospholipase A2 = Phospholipase A2 (Homo sapiens, UniProt P04054); assay type: functional;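 further: confirmatory dose-response counterscreen on phospholipase A2, testing hits that came from an ultra-high-throughput screen for ATG4B inhibitors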
Chain of Phospholipase A2 (P04054 whole entry): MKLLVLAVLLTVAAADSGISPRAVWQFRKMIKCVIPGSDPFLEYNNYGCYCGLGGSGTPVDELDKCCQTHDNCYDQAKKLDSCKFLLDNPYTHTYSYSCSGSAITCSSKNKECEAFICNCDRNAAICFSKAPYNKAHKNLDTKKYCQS

[5] = test system: Streptococcus sp. 'group A'; assay: Streptococcus pyogenes SK(-)GAS viability under kanamycin – luminescence, BacTiterGlo, confirmation, counter-screen for streptokinase expression inhibitor project, dose response (AID 1900); assay type: functional, organism-based
Cysteine protease ATG4B = target: T4, Cysteine protease ATG4B (Homo sapiens, UniProt Q9Y4P1); assay: autophagin-1 cysteine protease inhibition – biochemical, fluorescence, set 2, dose response (AID 588584); assay type: functional
T4 sequence (Q9Y4P1 whole entry): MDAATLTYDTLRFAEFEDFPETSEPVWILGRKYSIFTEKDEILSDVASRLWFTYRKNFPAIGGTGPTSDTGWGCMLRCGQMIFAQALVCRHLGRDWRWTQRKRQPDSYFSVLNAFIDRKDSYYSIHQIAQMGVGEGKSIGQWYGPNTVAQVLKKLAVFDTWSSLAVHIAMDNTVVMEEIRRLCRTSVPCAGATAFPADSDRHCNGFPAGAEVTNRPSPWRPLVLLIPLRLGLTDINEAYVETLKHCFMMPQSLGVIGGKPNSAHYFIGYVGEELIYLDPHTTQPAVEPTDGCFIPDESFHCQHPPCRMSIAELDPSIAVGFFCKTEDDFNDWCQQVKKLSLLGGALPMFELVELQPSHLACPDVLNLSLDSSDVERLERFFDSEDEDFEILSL

Row | Structure (SMILES) | AC50 (ORF 73) | EC50 [1] | IC50 [2] | IC50 [3] | IC50 (Troponin, cardiac muscle) | EC50 [4] | EC50 (cells) | IC50 (Phospholipase A2) | EC50 [5] | IC50 (Cysteine protease ATG4B)
1 | O=C1CCN2C=Nc3cccc4ccc1c2c34 | 1.42 µM (active) | – | – | – | – | – | – | – | – | –
2 | CC(C)C(C(=O)O)N1C(=O)/C(=C/C=C/c2ccco2)SC1=S (stereo not drawn) | 45.6 µM (active) | 19.4 µM (inconclusive) | 47.9 µM (active) | 20.5 µM (not active) | 22.4 µM (inactive) | 11 µM (inconclusive) | – | – | – | –
3 | Oc1ccc2ccccc2c1/C=N/Nc1nnc(-c2ncc[nH]2)c2ccccc12 | – | 2.45 µM (active) | – | – | – | 48.7 µM (inconclusive) | > 350 µM (not active) | 1.51 µM (active) | 1.98 µM (active) | 5.4 µM (active)
